Measured values published in patent US11807835B2, “Detergent compositions containing a stabilized enzyme by phosphonates” (ECOLAB USA INC., priority 2016, dated 2023).

System: lipase
Assay: Lipase activity retention in detergent use solution (4000 ppm, 5 GPG water; p-nitrophenyl valerate, TRIS buffer pH 8.0)
Assay type: biochemical
Settings: for Relative Lipase Enzyme Activity in a Use Solution: Table 6E, room temperature; for Relative Lipase Enzyme Activity in a Use Solution of the All Ash Detergent Composition: Table 6F, all ash formula, 120º F.; for Relative Lipase Enzyme Activity: base formula
Summary of the method: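 Lipase stability was measured in a detergent use solution under conditions mimicking presoak or manual warewash, with stirring in a water bath. Aliquots were taken over time and flash-frozen. Thawed samples were diluted in TRIS buffer at pH 8.0 and assayed with p-nitrophenyl valerate as substrate on a plate reader. Activity is reported as % retained relative to the time=0 sample.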

[1] = phosphonate 0.3 wt-%, time 90 min
[2] = phosphonate 0.3 wt-%, time 120 min
[3] = phosphonate 0.3 wt-%, time 150 min
[4] = phosphonate 0.3 wt-%, time 180 min
[5] = phosphonate 0.3 wt-%, time 210 min
[6] = phosphonate 0.3 wt-%, time 240 min

## CC(O)(P(=O)(O)O)P(=O)(O)O [HEDP, 1-hydroxy ethylidene-1,1-diphosphonic acid]
[1]
  Relative Lipase Enzyme Activity in a Use Solution: 104.91%
  Relative Lipase Enzyme Activity in a Use Solution of the All Ash Detergent Composition: −1.68%
[2]
  Relative Lipase Enzyme Activity in a Use Solution: 100.99%
  Relative Lipase Enzyme Activity in a Use Solution of the All Ash Detergent Composition: −1.38%
[3]
  Relative Lipase Enzyme Activity in a Use Solution: 100.18%
  Relative Lipase Enzyme Activity in a Use Solution of the All Ash Detergent Composition: −1.94%
[4]
  Relative Lipase Enzyme Activity in a Use Solution: 100.45%
  Relative Lipase Enzyme Activity in a Use Solution of the All Ash Detergent Composition: −4.15%
[5]
  Relative Lipase Enzyme Activity in a Use Solution: 98.87%
  Relative Lipase Enzyme Activity in a Use Solution of the All Ash Detergent Composition: −4.41%
[6]
  Relative Lipase Enzyme Activity in a Use Solution: 99.95%
  Relative Lipase Enzyme Activity in a Use Solution of the All Ash Detergent Composition: −3.60%
Phosphonate 0.3 wt-%, time 0 min
  Relative Lipase Enzyme Activity in a Use Solution of the All Ash Detergent Composition: 100.00%
Phosphonate 0.3 wt-%, time 5 min
  Relative Lipase Enzyme Activity in a Use Solution of the All Ash Detergent Composition: 39.01%
Phosphonate 0.3 wt-%, time 10 min
  Relative Lipase Enzyme Activity in a Use Solution of the All Ash Detergent Composition: 21.35%
Phosphonate 0.3 wt-%, time 20 min
  Relative Lipase Enzyme Activity in a Use Solution of the All Ash Detergent Composition: 7.45%
Phosphonate 0.3 wt-%, time 40 min
  Relative Lipase Enzyme Activity in a Use Solution of the All Ash Detergent Composition: 0.88%
Phosphonate 0.3 wt-%, time 60 min
  Relative Lipase Enzyme Activity in a Use Solution of the All Ash Detergent Composition: −0.91%
Phosphonate 0.3 wt-%, use solution at 120° F., time 0 min
  Relative Lipase Enzyme Activity: 100.00%
Phosphonate 0.3 wt-%, use solution at 120° F., time 5 min
  Relative Lipase Enzyme Activity: 47.15%
Phosphonate 0.3 wt-%, use solution at 120° F., time 10 min
  Relative Lipase Enzyme Activity: 44.35%
Phosphonate 0.3 wt-%, use solution at 120° F., time 20 min
  Relative Lipase Enzyme Activity: 34.94%
Phosphonate 0.3 wt-%, use solution at 120° F., time 40 min
  Relative Lipase Enzyme Activity: 23.40%
Phosphonate 0.3 wt-%, use solution at 120° F., time 60 min
  Relative Lipase Enzyme Activity: 17.75%
Phosphonate 0.3 wt-%, use solution at 120° F., time 90 min
  Relative Lipase Enzyme Activity: 11.06%
Phosphonate 0.3 wt-%, use solution at 120° F., time 120 min
  Relative Lipase Enzyme Activity: 6.92%
Phosphonate 0.3 wt-%, use solution at 120° F., time 150 min
  Relative Lipase Enzyme Activity: 5.38%
Phosphonate 0.3 wt-%, use solution at 120° F., time 180 min
  Relative Lipase Enzyme Activity: 2.90%
Phosphonate 0.3 wt-%, use solution at 120° F., time 210 min
  Relative Lipase Enzyme Activity: 2.62%
Phosphonate 0.3 wt-%, use solution at 120° F., time 240 min
  Relative Lipase Enzyme Activity: 2.32%
Phosphonate 0.6 wt-%, use solution at 120º F., time 0 min
  Relative Lipase Enzyme Activity: 100.00%
Phosphonate 0.6 wt-%, use solution at 120º F., time 5 min
  Relative Lipase Enzyme Activity: 62.99%
Phosphonate 0.6 wt-%, use solution at 120º F., time 10 min
  Relative Lipase Enzyme Activity: 59.92%
Phosphonate 0.6 wt-%, use solution at 120º F., time 20 min
  Relative Lipase Enzyme Activity: 48.34%
Phosphonate 0.6 wt-%, use solution at 120º F., time 40 min
  Relative Lipase Enzyme Activity: 33.30%
Phosphonate 0.6 wt-%, use solution at 120º F., time 60 min
  Relative Lipase Enzyme Activity: 23.22%
Phosphonate 0.6 wt-%, use solution at 120º F., time 90 min
  Relative Lipase Enzyme Activity: 17.91%
Phosphonate 0.6 wt-%, use solution at 120º F., time 120 min
  Relative Lipase Enzyme Activity: 14.72%
Phosphonate 0.6 wt-%, use solution at 120º F., time 150 min
  Relative Lipase Enzyme Activity: 12.63%
Phosphonate 0.6 wt-%, use solution at 120º F., time 180 min
  Relative Lipase Enzyme Activity: 7.01%
Phosphonate 0.6 wt-%, use solution at 120º F., time 210 min
  Relative Lipase Enzyme Activity: 8.08%
Phosphonate 0.6 wt-%, use solution at 120º F., time 240 min
  Relative Lipase Enzyme Activity: 5.20%
Phosphonate at 0.1% elemental phosphorus, at 120º F. or at room temperature (as titled), time 0 min
  Relative Lipase Enzyme Activity: 100.00%
Phosphonate at 0.1% elemental phosphorus, at 120º F. or at room temperature (as titled), time 5 min
  Relative Lipase Enzyme Activity: 79.12%
Phosphonate at 0.1% elemental phosphorus, at 120º F. or at room temperature (as titled), time 10 min
  Relative Lipase Enzyme Activity: 67.70%
Phosphonate at 0.1% elemental phosphorus, at 120º F. or at room temperature (as titled), time 20 min
  Relative Lipase Enzyme Activity: 51.16%
Phosphonate at 0.1% elemental phosphorus, at 120º F. or at room temperature (as titled), time 40 min
  Relative Lipase Enzyme Activity: 25.69%
Phosphonate at 0.1% elemental phosphorus, at 120º F. or at room temperature (as titled), time 60 min
  Relative Lipase Enzyme Activity: 19.99%
Phosphonate at 0.1% elemental phosphorus, at 120º F. or at room temperature (as titled), time 90 min
  Relative Lipase Enzyme Activity: 16.10%
Phosphonate at 0.1% elemental phosphorus, at 120º F. or at room temperature (as titled), time 120 min
  Relative Lipase Enzyme Activity: 13.04%
Phosphonate at 0.1% elemental phosphorus, at 120º F. or at room temperature (as titled), time 150 min
  Relative Lipase Enzyme Activity: 11.14%
Phosphonate at 0.1% elemental phosphorus, at 120º F. or at room temperature (as titled), time 180 min
  Relative Lipase Enzyme Activity: 9.12%
Phosphonate at 0.1% elemental phosphorus, at 120º F. or at room temperature (as titled), time 210 min
  Relative Lipase Enzyme Activity: 7.99%
Phosphonate at 0.1% elemental phosphorus, at 120º F. or at room temperature (as titled), time 240 min
  Relative Lipase Enzyme Activity: 7.70%
